# In US12479886B2, “Inhibitors of IL-15 and their use in treating autoimmune/inflammatory disorders” (University of Houston System, priority 2019, dated 2025):
# Bridge positions count the residues as written; N and C are the ends. Square brackets hold non-standard residues; d marks the D form. Peptide text beside a SMILES is read from it. I, II: the chains in the order shown. N(4-MeOBn)Gly = COc1ccc(CNCC(=O)O)cc1; Nleu = CC(C)CNCC(=O)O; Nlys = NCCCCNCC(=O)O; Nme = COCCNCC(=O)O
# Tests used:
# [1] = tested on: IL-15; assay: CTLL-2 proliferation assay (WST-1); assay type: cell-based, murine
# Protocol: (§1) FIGS. 7A-C. IFRA3Q1 inhibits the IL-15 activity. To determine if IFRA3 and its derivatives can regulate the function of IL-15, the inventors performed CTLL-2 proliferation assay. The proliferation of murine T cell line CTLL-2 depends on the presence and activity of IL-15. CTLL-2 cells were seeded into 96-well plates and treated with IL-15 in the presence or absence of IFRA3D1, IFRA3T1, or IFRA3Q1 at indicated concentrations for 72 hours. CTLL-2 cell proliferation was measured by WST-1 assay.
# as §1, with “To determine” for “FIGS. 7A-C. IFRA3Q1 inhibits the IL-15 activity. To determine”, “WST-1 assay. […] IFRA3 and its derivatives had no effects on cell proliferation by themselves.” for “WST-1 assay.”
# [2] = biological target: T1, IL-15 Rα (Homo sapiens, UniProt Q13261); assay: on-bead two-color (OBTC) screening and validation with IL-15Rα expressing and non-expressing HeLa cells; assay type: cell-based
# T1 construct: Cell lysates from IL-15RA positive HeLa cells (expressing IL15RA) or IL-15RA negative HeLa cells (transfected with IL15RA siRNA to knock down IL15RA); endogenous in cells; host or cells: HeLa
# T1 sequence (Q13261 31-267): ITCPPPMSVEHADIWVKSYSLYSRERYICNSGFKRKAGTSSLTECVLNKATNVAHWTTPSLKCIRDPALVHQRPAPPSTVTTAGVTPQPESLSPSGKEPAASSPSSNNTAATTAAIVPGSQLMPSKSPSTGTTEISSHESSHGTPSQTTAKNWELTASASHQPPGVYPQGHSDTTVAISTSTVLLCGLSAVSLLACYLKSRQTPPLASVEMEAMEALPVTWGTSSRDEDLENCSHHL
# Protocol: FIGS. 1A-C. Discovery of the IL-15 receptor a subunit-binding compound IFRA3 through OBTC screening of a peptoid library. To identify compounds that can bind to IL-15 receptor, the inventors performed an on-bead two-color (OBTC) screening experiment. HeLa cells expressing IL-15 Rα were stained with red Qdot® […] nanocrystals and HeLa cells not expressing IL-15 Rα were stained with green Qdot® […] nanocrystals. One million green cells and one million red cells were mixed and incubated for 1 hour with 50,000 peptoid compound library beads containing one-compound on one bead at 23° C. Beads that bind to only red cells but not green cells were isolated under fluorescent microscope and the compound attached to the bead was identified by mass spectrometry. (FIG. 1A) Illustration of the OBTC screening mechanism. (FIG. 1B) One example of the bead that binds only the red cells. (FIG. 1C) The chemical structure of IFRA3, one of the three hits discovered in this screening.
# FIG. 3. Validation of the binding of IFRA3 to IL-15 receptor a subunit using OBTC. The compound IFRA3 was resynthesized on the beads and were incubated with IL-15 RA expressing HeLa cells (red stained) and IL-15RA negative HeLa cells (green stained) individually as well as 1:1 mixture of red and green cells. […]
# [3] = biological target: T2, IL-15 receptor a (IL15RA) (Homo sapiens, UniProt Q13261); assay: in vitro pull-down assay with peptoid-conjugated beads and HeLa cell lysates, Coomassie staining and western blot; assay type: binding; settings: beads conjugated with compound, 4° C. overnight; band identity confirmed by western blot
# T2 construct: Cell lysates from IL-15RA positive HeLa cells (expressing IL15RA) or IL-15RA negative HeLa cells (transfected with IL15RA siRNA to knock down IL15RA); endogenous in cells; host or cells: HeLa
# T2 sequence (Q13261 31-267): as above
# Protocol: FIGS. 2A-B. Confirmation of the binding of IFRA3 to IL-15 receptor a subunit. […] Cell lysates from IL-15RA positive HeLa cells (expressing IL15RA) or IL-15RA negative HeLa cells (transfected with IL15RA siRNA to knock down IL15RA) were incubated with beads conjugated with IFRA1, or IFRA2, or IFRA3 at 4° C. overnight. The beads were then washed with RIPA buffer for 3 times, and the binding proteins were eluted with 1% SDS. The yielded lysates were then applied onto 12% SDS-PAGE gel and subjected to Coomassie blue staining. (FIG. 2B) Protein in the gel was transferred to membrane and identified by western blotting analysis with antibody against IL-15RA.
# Cell lysates from IL-15RA positive HeLa cells (expressing IL15RA) or IL-15RA negative HeLa cells (transfected with IL15RA siRNA to knock down IL15RA) were incubated with beads conjugated with IFRA1, or IFRA2, or IFRA3 at 4° C. overnight. The beads were then washed with RIPA buffer for 3 times, and the binding proteins were eluted with 1% SDS. The yielded lysates were then applied onto 12% SDS-PAGE gel and subjected to Coomassie blue staining. Protein in the gel was transferred to membrane and identified by western blotting analysis with antibody against IL-15RA. […] Western blot results confirmed the identity of the protein band as IL15RA. Thus, the data support that IFRA3 can bind to IL15RA.
"binding to IL-15 receptor subunit a in OBTC screen (hit) ([2]; peptoid library beads, red IL-15Rα+ and green IL-15Rα- HeLa cells, 1 hour, 23° C.)",Structure (SMILES),"inhibition of IL-15-stimulated proliferation of CTLL-2 cells ([1]; with IL-15, 72 hours, WST-1)","binding of cells to beads with resynthesized compound (OBTC validation) ([2]; IL-15RA expressing (red) and negative (green) HeLa cells, individually and as 1:1 mixture)",pull-down of IL15RA from cell lysates [3],"effect on cell proliferation by themselves ([1]; CTLL-2 cells, compound alone without IL-15)"
,"COCCN(CC(=O)NC(CCCCN)C(=O)NC(CCSC)C(=O)NCCCCC(NC(=O)C(CCCCNC(=O)C(CCSC)NC(=O)C(CCCCN)NC(=O)CN(CCOC)C(=O)CN(CCCCN)C(=O)CN(CCCCN)C(=O)CN(CCOC)C(=O)CN(Cc1ccc(OC)cc1)C(=O)CNCC(C)C)NC(=O)C(CCSC)NC(=O)C(CCCCN)NC(=O)CN(CCOC)C(=O)CN(CCCCN)C(=O)CN(CCCCN)C(=O)CN(CCOC)C(=O)CN(Cc1ccc(OC)cc1)C(=O)CNCC(C)C)C(N)=O)C(=O)CN(CCCCN)C(=O)CN(CCCCN)C(=O)CN(CCOC)C(=O)CN(Cc1ccc(OC)cc1)C(=O)CNCC(C)C (centres unmarked) [IFRA3T1] (I: H-[Nleu][N(4-MeOBn)Gly][Nme][Nlys][Nlys][Nme]KMKK-NH2 / II: H-[Nleu][N(4-MeOBn)Gly][Nme][Nlys][Nlys][Nme]KM / III: H-[Nleu][N(4-MeOBn)Gly][Nme][Nlys][Nlys][Nme]KM; amide I:9-II:C, I:10-III:C; configuration not given here)",less effects,,,
binds to the IL-15 receptor subunit a,COCCN(CC(=O)NC(CCCCN)C(=O)NC(CCSC)C(N)=O)C(=O)CN(CCCCN)C(=O)CN(CCCCN)C(=O)CN(CCOC)C(=O)CN(Cc1ccc(OC)cc1)C(=O)CNCC(C)C (centres unmarked) [IFRA3] (H-[Nleu][N(4-MeOBn)Gly][Nme][Nlys][Nlys][Nme]KM-NH2; configuration not given here),,"only red cells bind to the beads, and the green cells do not bind",can pull down a protein band corresponding to the size of IL15RA,no effects
